The results in this text go back to ChEMBL document CHEMBL6109097, “Structure-based design of novel 2,4,5-trisubstituted pyrimidine derivatives as potent HIV-1 NNRTIs by exploiting the tolerant regions in NNTRIs binding pocket” (Eur J Med Chem, 2025).

For orientation: IC50 means the concentration at which inhibition is half-maximal. One may read the EC50 as the concentration needed to bring the measured effect to its halfway point. In general, CC50 refers to the concentration giving 50% cytotoxicity.

The target of one data set is Human immunodeficiency virus type 1 reverse transcriptase (Human immunodeficiency virus 1, UniProt Q72547). As to the kind of experiment: Inhibition of wild type HIV-1 reverse transcriptase assessed as reduction in biotin-dUTP incorporation in cDNA preincubated with compound for 1 hr in presence of biotin-labeled dNTPs by ELISA.
Settings: not given
Background: In an ELISA, binding on a coated surface is turned into a signal by an enzyme label.
As for `Cc1cc(/C=C/C#N)cc(C)c1Oc1nc(Nc2ccc(N3CCN(S(C)(=O)=O)CC3)c(F)c2)ncc1-c1cccnc1`, the IC50 came to 630 nM.
For `Cc1cc(/C=C/C#N)cc(C)c1Oc1nc(Nc2ccc(N3CCN(S(C)(=O)=O)CC3)c(C#N)c2)ncc1-c1ccc(N)nc1`, the IC50 was found to be 410 nM.
For `Cc1cc(/C=C/C#N)cc(C)c1Oc1nc(Nc2ccc(N3CCS(=O)(=O)CC3)c(C#N)c2)ncc1-c1cccnc1`, the IC50 came to 490 nM.

System in the next data set: not listed separately
Nature of the data set: Selectivity index, ratio of CC50 for cytotoxicity against human MT4 cells assessed as reduction in cell viability to EC50 for antiviral activity against human MT4 cells assessed as protection against virus-induced cytopathic effect. The note with it: read-out: Ratio CC50/EC50. It is filed as toxicity, cell-based. Background: Cytopathic effects are the visible damage that an infection or toxin causes in cultured cells.
As to `Cc1cc(/C=C/C#N)cc(C)c1Oc1nc(Nc2ccc(N3CCN(S(C)(=O)=O)CC3)c(F)c2)ncc1-c1cccnc1`, the selectivity ratio was over 2140.
In the case of `Cc1cc(/C=C/C#N)cc(C)c1Oc1nc(Nc2ccc(N3CCN(S(C)(=O)=O)CC3)c(C#N)c2)ncc1-c1ccc(N)nc1`, the selectivity ratio was determined as 25300.
Still for that read-out and setting: the same measure for `Cc1cc(/C=C/C#N)cc(C)c1Oc1nc(Nc2ccc(N3CCS(=O)(=O)CC3)c(C#N)c2)ncc1-c1cccnc1`: 1340.

The subject of the next data set is Human immunodeficiency virus 1. As to the kind of experiment: Antiviral activity against NNRTI-resistant HIV-1 harboring L100I mutant infected in human MT4 cells assessed as protection against virus-induced cytopathic effect incubated for 5 days by MTT assay. To be noted: Human immunodeficiency virus 1, MT4, 120 h. Format: functional, organism-based.
On to `Cc1cc(/C=C/C#N)cc(C)c1Oc1nc(Nc2ccc(N3CCN(S(C)(=O)=O)CC3)c(F)c2)ncc1-c1cccnc1`, for which the EC50 was 230 nM.
As to `Cc1cc(/C=C/C#N)cc(C)c1Oc1nc(Nc2ccc(N3CCN(S(C)(=O)=O)CC3)c(C#N)c2)ncc1-c1ccc(N)nc1`, the EC50 was 9.4 nM.
As to `Cc1cc(/C=C/C#N)cc(C)c1Oc1nc(Nc2ccc(N3CCS(=O)(=O)CC3)c(C#N)c2)ncc1-c1cccnc1`, the concentration giving a half-maximal response (EC50) came to 54 nM.

Another data set deals with Human immunodeficiency virus 1. As to the kind of experiment: Antiviral activity against NNRTI-resistant HIV-1 harboring Y181C mutant infected in human MT4 cells assessed as protection against virus-induced cytopathic effect incubated for 5 days by MTT assay. The note with it: Human immunodeficiency virus 1, MT4, 120 h. It is filed as functional, organism-based.
Consider `Cc1cc(/C=C/C#N)cc(C)c1Oc1nc(Nc2ccc(N3CCN(S(C)(=O)=O)CC3)c(F)c2)ncc1-c1cccnc1`, for which the EC50 was 400 nM.
Turning to `Cc1cc(/C=C/C#N)cc(C)c1Oc1nc(Nc2ccc(N3CCN(S(C)(=O)=O)CC3)c(C#N)c2)ncc1-c1ccc(N)nc1`, the EC50 is 34 nM.
As to `Cc1cc(/C=C/C#N)cc(C)c1Oc1nc(Nc2ccc(N3CCS(=O)(=O)CC3)c(C#N)c2)ncc1-c1cccnc1`, the EC50 stood at 140 nM.

The test system of another data set is Human immunodeficiency virus 1. As to the kind of experiment: Antiviral activity against NNRTI-resistant HIV-1 harboring Y188L mutant infected in human MT4 cells assessed as protection against virus-induced cytopathic effect incubated for 5 days by MTT assay. It is filed as functional, organism-based. To be noted: Human immunodeficiency virus 1, MT4, 120 h.
`Cc1cc(/C=C/C#N)cc(C)c1Oc1nc(Nc2ccc(N3CCN(S(C)(=O)=O)CC3)c(F)c2)ncc1-c1cccnc1`: the EC50 came out at 2030 nM.
Take `Cc1cc(/C=C/C#N)cc(C)c1Oc1nc(Nc2ccc(N3CCN(S(C)(=O)=O)CC3)c(C#N)c2)ncc1-c1ccc(N)nc1`: the EC50 was determined as 250 nM.
On to `Cc1cc(/C=C/C#N)cc(C)c1Oc1nc(Nc2ccc(N3CCS(=O)(=O)CC3)c(C#N)c2)ncc1-c1cccnc1`, for which the EC50 is 720 nM.

The next data set concerns Human immunodeficiency virus 1. As to the kind of experiment: Antiviral activity against wild type HIV-1 IIIB infected in human MT4 cells assessed as protection against virus-induced cytopathic effect incubated for 5 days by MTT assay. Format: functional, organism-based. To be noted: Human immunodeficiency virus 1, IIIB, MT4, 120 h.
Take `Cc1cc(/C=C/C#N)cc(C)c1Oc1nc(Nc2ccc(N3CCN(S(C)(=O)=O)CC3)c(F)c2)ncc1-c1cccnc1`: the EC50 came to 19 nM.
In the case of `Cc1cc(/C=C/C#N)cc(C)c1Oc1nc(Nc2ccc(N3CCN(S(C)(=O)=O)CC3)c(C#N)c2)ncc1-c1ccc(N)nc1`, the EC50 was 6.4 nM.
Consider `Cc1cc(/C=C/C#N)cc(C)c1Oc1nc(Nc2ccc(N3CCS(=O)(=O)CC3)c(C#N)c2)ncc1-c1cccnc1`, for which the EC50 came out at 16 nM.

System in a further data set: not listed separately
Nature of the data set: Cytotoxicity against human MT4 cells assessed as reduction in cell viability incubated for 5 days by MTT assay. It is filed as toxicity, cell-based. The note with it: time 5 day. (Formazan colour is commonly taken as a measure of viable cells.)
Take `Cc1cc(/C=C/C#N)cc(C)c1Oc1nc(Nc2ccc(N3CCN(S(C)(=O)=O)CC3)c(F)c2)ncc1-c1cccnc1`: the CC50 at 120 h was over 41700 nM.
On the same count and under the same terms, the figure for `Cc1cc(/C=C/C#N)cc(C)c1Oc1nc(Nc2ccc(N3CCN(S(C)(=O)=O)CC3)c(C#N)c2)ncc1-c1ccc(N)nc1` is 161000 nM; for `Cc1cc(/C=C/C#N)cc(C)c1Oc1nc(Nc2ccc(N3CCS(=O)(=O)CC3)c(C#N)c2)ncc1-c1cccnc1` it is 21800 nM.

The test system of another data set is Human immunodeficiency virus 1. Nature of the data set: Potency index, ratio of efavirenz EC50 to test compound EC50 for antiviral activity against NNRTI-resistant HIV-1 harboring L100I mutant infected in human MT4 cells assessed as protection against virus-induced cytopathic effect incubated for 5 days by MTT assay. Format: functional. The note with it: time 5 day.
On to `Cc1cc(/C=C/C#N)cc(C)c1Oc1nc(Nc2ccc(N3CCN(S(C)(=O)=O)CC3)c(C#N)c2)ncc1-c1ccc(N)nc1`, for which the “Ratio EC50” value is reported as 3.7.

The next data set relates to Human immunodeficiency virus 1. Nature of the data set: Potency index, ratio of efavirenz EC50 to test compound EC50 for antiviral activity against NNRTI-resistant HIV-1 harboring F227L/V106A double mutant infected in human MT4 cells assessed as protection against virus-induced cytopathic effect incubated for 5 days by MTT assay. To be noted: time 5 day. Format: functional.
Consider `Cc1cc(/C=C/C#N)cc(C)c1Oc1nc(Nc2ccc(N3CCN(S(C)(=O)=O)CC3)c(C#N)c2)ncc1-c1ccc(N)nc1`, for which the “Ratio EC50” value is recorded as 7.

The test system of the next data set is Human immunodeficiency virus 1. Nature of the data set: Antiviral activity against NNRTI-resistant HIV-1 harboring K103N mutant infected in human MT4 cells assessed as protection against virus-induced cytopathic effect incubated for 5 days by MTT assay. Format: functional, organism-based. To be noted: Human immunodeficiency virus 1, MT4, 120 h.
Consider `Cc1cc(/C=C/C#N)cc(C)c1Oc1nc(Nc2ccc(N3CCN(S(C)(=O)=O)CC3)c(F)c2)ncc1-c1cccnc1`, for which the EC50 came out at 24 nM.
Consider `Cc1cc(/C=C/C#N)cc(C)c1Oc1nc(Nc2ccc(N3CCN(S(C)(=O)=O)CC3)c(C#N)c2)ncc1-c1ccc(N)nc1`, for which the EC50 worked out at 6.2 nM.
As to `Cc1cc(/C=C/C#N)cc(C)c1Oc1nc(Nc2ccc(N3CCS(=O)(=O)CC3)c(C#N)c2)ncc1-c1cccnc1`, the EC50 is 9.9 nM.

The next data set relates to Human immunodeficiency virus 1. Nature of the data set: Potency index, ratio of efavirenz EC50 to test compound EC50 for antiviral activity against NNRTI-resistant HIV-1 harboring K103N mutant infected in human MT4 cells assessed as protection against virus-induced cytopathic effect incubated for 5 days by MTT assay. It is filed as functional. To be noted: time 5 day.
For `Cc1cc(/C=C/C#N)cc(C)c1Oc1nc(Nc2ccc(N3CCN(S(C)(=O)=O)CC3)c(C#N)c2)ncc1-c1ccc(N)nc1`, the “Ratio EC50” value was found to be 12.6.

A further data set has as its system Human immunodeficiency virus 1. As to the kind of experiment: Antiviral activity against NNRTI-resistant HIV-1 harboring F227L/V106A double mutant infected in human MT4 cells assessed as protection against virus-induced cytopathic effect incubated for 5 days by MTT assay. It is filed as functional, organism-based. The note with it: Human immunodeficiency virus 1, MT4, 120 h.
In the case of `Cc1cc(/C=C/C#N)cc(C)c1Oc1nc(Nc2ccc(N3CCN(S(C)(=O)=O)CC3)c(F)c2)ncc1-c1cccnc1`, the EC50 amounted to 640 nM.
Turning to `Cc1cc(/C=C/C#N)cc(C)c1Oc1nc(Nc2ccc(N3CCN(S(C)(=O)=O)CC3)c(C#N)c2)ncc1-c1ccc(N)nc1`, the EC50 amounted to 30 nM.
The same measure, in the same setting: the same measure for `Cc1cc(/C=C/C#N)cc(C)c1Oc1nc(Nc2ccc(N3CCS(=O)(=O)CC3)c(C#N)c2)ncc1-c1cccnc1`: 600 nM.

A further data set has as its system Human immunodeficiency virus 1. Nature of the data set: Antiviral activity against NNRTI-resistant HIV-1 harboring RES056 mutant infected in human MT4 cells assessed as protection against virus-induced cytopathic effect incubated for 5 days by MTT assay. It is filed as functional, organism-based. To be noted: Human immunodeficiency virus 1, MT4, 120 h.
In the case of `Cc1cc(/C=C/C#N)cc(C)c1Oc1nc(Nc2ccc(N3CCN(S(C)(=O)=O)CC3)c(F)c2)ncc1-c1cccnc1`, the EC50 came to 3740 nM.
Same read-out and setting: the same measure for `Cc1cc(/C=C/C#N)cc(C)c1Oc1nc(Nc2ccc(N3CCN(S(C)(=O)=O)CC3)c(C#N)c2)ncc1-c1ccc(N)nc1`: 210 nM; for `Cc1cc(/C=C/C#N)cc(C)c1Oc1nc(Nc2ccc(N3CCS(=O)(=O)CC3)c(C#N)c2)ncc1-c1cccnc1`: 990 nM.

The subject of the next data set is Human immunodeficiency virus 1. Nature of the data set: Antiviral activity against NNRTI-resistant HIV-1 harboring E138K mutant infected in human MT4 cells assessed as protection against virus-induced cytopathic effect incubated for 5 days by MTT assay. It is filed as functional, organism-based. To be noted: Human immunodeficiency virus 1, MT4, 120 h.
`Cc1cc(/C=C/C#N)cc(C)c1Oc1nc(Nc2ccc(N3CCN(S(C)(=O)=O)CC3)c(F)c2)ncc1-c1cccnc1`: the EC50 came out at 57 nM.
As to `Cc1cc(/C=C/C#N)cc(C)c1Oc1nc(Nc2ccc(N3CCN(S(C)(=O)=O)CC3)c(C#N)c2)ncc1-c1ccc(N)nc1`, the EC50 was found to be 30 nM.
For the molecule `Cc1cc(/C=C/C#N)cc(C)c1Oc1nc(Nc2ccc(N3CCS(=O)(=O)CC3)c(C#N)c2)ncc1-c1cccnc1`, the EC50 was 50 nM.
